Test results from patent US20260177565A1, “INHIBITOR FOR GLUCOSE UPTAKE INTO RED BLOOD CELLS, SUPPRESSANT FOR GLUCOSE CONCENTRATION REDUCTION IN BLOOD-COLLECTING TUBE, AND BLOOD-COLLECTING TUBE INCLUDING SAME” (THE UNIVERSITY OF TOKYO, priority 2022, published 2026).
“Also recorded” adds a separate entry of the source.

Tested on: red blood cells
Experiment: Fluorescently labeled glucose uptake into red blood cells (Glucose Uptake Assay Kit-Green)
Format: cell-based, human
Conditions: for uptake of fluorescently labeled glucose / fluorescence in red blood cells (in words): concentrations as in Table 5; for Fluorescence intensity of fluorescently labeled glucose uptake into red blood cells: control (PBS(−)) 613.5
Experimental: Blood collected in the blood collection tube B from a volunteer subject was centrifuged at 3000 rpm for 5 minutes within 10 minutes, and plasma was discarded to obtain fresh red blood cells. The red blood cells were washed with PBS(−) and used for the following tests (washed red blood cells).
The test substance was dissolved in the amount described in Table 5 with respect to 1 mL of PBS(−). On the other hand, 5 μL of washed red blood cells immersed in PBS(−) and allowed to stand for about 15 minutes were taken out into a test tube, 150 μL each of a test substance solution was added thereto, and this was heated at 37° C. for 15 minutes. Then, 2 μL of a dissolved probe reagent in a glucose uptake assay kit (Glucose Uptake Assay Kit-Green, Dojindo Laboratories Co., Ltd.) was added and heated at 37° C. for 45 minutes. The probe reagent was fluorescently labeled glucose (fluorescently labeled glucose), and a powdered reagent dissolved in 20 μL of DMSO was used.
After the immersion in the reagents of the glucose uptake assay was completed, red blood cells were washed 3 times with 150 μL of a cooled 50-fold diluted WI solution (prepared by diluting the solution provided with the assay reagent 50-fold with PBS(−) at 4° C.), and 150 μL of a cooled 50-fold diluted WI solution was further added and stirred, and then 20 μL of the solution was dropped onto a glass slide and spread over the slide. Slides were photographed with fluorescence microscope.
The remaining red blood cells were centrifuged to discard the supernatant, and 125 μL of water for injection was added to the remaining lower red blood cells to cause hemolysis. The fluorescence intensity of 100 μL of the supernatant obtained by centrifugation was measured using a microplate reader (MTP-800Lab, Corona Electric Co., Ltd.). The measurement conditions were an excitation light wavelength of […] and a measurement fluorescence wavelength of […].

SMILES | uptake of fluorescently labeled glucose / fluorescence in red blood cells (in words) | Fluorescence intensity of fluorescently labeled glucose uptake into red blood cells (test substance 1.25 mg/mL in PBS(−)) | Fluorescence intensity of fluorescently labeled glucose uptake into red blood cells (test substance 1.5 mg/mL in PBS(−)) | Fluorescence intensity of fluorescently labeled glucose uptake into red blood cells (test substance 2 mg/mL in PBS(−))
Nc1ncnc2c1ncn2[C@@H]1O[C@H](COP(=O)(O)OP(=O)(O)OP(=O)(O)O)[C@@H](O)[C@H]1O [ATP, adenosine triphosphate] | the degree of suppression of uptake was much lower than that of inosine | 163.3 |  | 
[F-].[Na+] [Sodium fluoride, sodium fluoride] | the degree of suppression of uptake was much lower than that of inosine |  | 255.1 | 
OC[C@H]1O[C@@H](n2cnc3c(O)ncnc32)[C@H](O)[C@@H]1O [Inosine, inosine] | fluorescence in red blood cells was hardly observed; also recorded: strong inhibitory effect on the uptake of glucose in red blood cells |  |  | 6.4
